Reference: patent US20120115724A1, “METHOD OF CONTROLLING UNDESIRED VEGETATION” (SYNGENTA CROP PROTECTION LLC, priority 2009, published 2012)

How the values were obtained:
Type in all cases: in vivo
CHEAL Chenopodium album [1] = assay: Post-emergence crop and weed test (Example 15); details: 360 h, 8 g/ha, after 15 days, read-out: Percentage damage CHEAL
Method: (§1) Seeds of crop and representative weed species were sown in standard soil in pots. After cultivation for 14 days under controlled conditions in a glasshouse (at 22/16° C., day/night; 16 hours light; 65% humidity), the plants were sprayed. The spray solution was prepared by dissolving the technical active ingredient in acetone containing 10.56 wt % Emulsogen EL, 42.22 wt % N-methylpyrrolidone and 2.22 wt % DPG-monoethyl ether to give a 5% stock solution. This was then diluted with water containing 0.2% (v/v) of the adjuvant X-77 to give the desired treatment concentration.
(§2) The test plants were then grown on under controlled conditions in a glasshouse (at 22/16° C., day/night; 16 hours light; 65% humidity) and watered twice daily. After 15 days the test was evaluated (100 =total damage to plant; 0 =no damage to plant).

VERPE Veronica persica = assay: Post-emergence crop and weed test (Example 15); details: 360 h, 8 g/ha, after 15 days, read-out: Percentage damage VERPE
Method: as §1, §2

[2] = tested on: AMARE Amaranthus retroflexus; assay: Post-emergence crop and weed test (Example 15); details: 360 h, 8 g/ha, after 15 days, read-out: Percentage damage AMARE
Method: as §1, §2

SINAR Sinapis arvensis [3] = assay: Post-emergence crop and weed test (Example 15); details: Mutarda arvensis, 360 h, 8 g/ha, after 15 days, read-out: Percentage damage SINAR
Method: as §1, §2

[4] = tested on: XANST Xanthium strumarium; assay: Post-emergence crop and weed test (Example 15); details: 360 h, 8 g/ha, after 15 days, read-out: Percentage damage XANST
Method: as §1, §2

[5] = tested on: POLCO Polygonum convolvulus; assay: Post-emergence crop and weed test (Example 15); details: Fallopia convolvulus, 360 h, 8 g/ha, after 15 days, read-out: Percentage damage POLCO
Method: as §1, §2

[6] = tested on: ABUTH Abutilon theophrasti; assay: Post-emergence crop and weed test (Example 15); details: 360 h, 8 g/ha, after 15 days, read-out: Percentage damage ABUTH
Method: as §1, §2

SIDSP Sida spinosa [7] = assay: Post-emergence crop and weed test (Example 15); details: 360 h, 8 g/ha, after 15 days, read-out: Percentage damage SIDSP
Method: as §1, §2

GLXMA Soybean [8] = assay: Post-emergence crop and weed test (Example 15); details: Glycine max, 360 h, 8 g/ha, after 15 days, read-out: Percentage damage GLXMA
Method: as §1, §2

KCHSC Kochia scoparia [9] = assay: Post-emergence crop and weed test (Example 15); details: Bassia scoparia, 360 h, 8 g/ha, after 15 days, read-out: Percentage damage KCHSC
Method: as §1, §2

[10] = tested on: EPHHL Euphorbia heterophylla; assay: Post-emergence crop and weed test (Example 15); details: 360 h, 8 g/ha, after 15 days, read-out: Percentage damage EPHHL
Method: as §1, §2

CHEAL Chenopodium album [11] = assay: Pre-emergence crop and weed test (Example 16); details: after 20 days
Method: as §1, with “1 day” for “14 days”
(§3) The test plants were then grown on under controlled conditions in a glasshouse (at 22/16° C., day/night; 16 hours light; 65% humidity) and watered twice daily. After 20 days the test was evaluated (100=total damage to plant; 0=no damage to plant).
(§4) Species as for Post-Emergence Test.

[12] = tested on: AMARE Amaranthus retroflexus; assay: Pre-emergence crop and weed test (Example 16); details: after 20 days
Method: as §1, with “1 day” for “14 days”
as §3, §4

SINAR Sinapis arvensis [13] = assay: Pre-emergence crop and weed test (Example 16); details: after 20 days
Method: as §1, with “1 day” for “14 days”
as §3, §4

IPOHE Ipomoea hederacea [14] = assay: Pre-emergence crop and weed test (Example 16); details: after 20 days
Method: as §1, with “1 day” for “14 days”
as §3, §4

[15] = tested on: XANST Xanthium strumarium; assay: Pre-emergence crop and weed test (Example 16); details: after 20 days
Method: as §1, with “1 day” for “14 days”
as §3, §4

[16] = tested on: POLCO Polygonum convolvulus; assay: Pre-emergence crop and weed test (Example 16); details: after 20 days
Method: as §1, with “1 day” for “14 days”
as §3, §4

[17] = tested on: ABUTH Abutilon theophrasti; assay: Pre-emergence crop and weed test (Example 16); details: after 20 days
Method: as §1, with “1 day” for “14 days”
as §3, §4

SIDSP Sida spinosa [18] = assay: Pre-emergence crop and weed test (Example 16); details: after 20 days
Method: as §1, with “1 day” for “14 days”
as §3, §4

GLXMA Soybean [19] = assay: Pre-emergence crop and weed test (Example 16); details: after 20 days
Method: as §1, with “1 day” for “14 days”
as §3, §4

KCHSC Kochia scoparia [20] = assay: Pre-emergence crop and weed test (Example 16); details: after 20 days
Method: as §1, with “1 day” for “14 days”
as §3, §4

[21] = tested on: EPHHL Euphorbia heterophylla; assay: Pre-emergence crop and weed test (Example 16); details: after 20 days
Method: as §1, with “1 day” for “14 days”
as §3, §4

IPOHE Ipomoea hederacea [22] = assay: Post-emergence crop and weed test (Example 15); details: 360 h, 8 g/ha, after 15 days, read-out: Percentage damage IPOHE
Method: as §1, §2

GALAP Galium aparine = assay: Pre-emergence crop and weed test (Example 16); details: 15 g/ha, after 20 days
Method: as §1, with “1 day” for “14 days”
as §3, §4

`C=Cc1c(N)nc(-c2ccc(Cl)c(OC)c2F)nc1C(=O)O` [Compound 11, 4-amino-2-(4-chloro-2-fluoro-3-methoxyphenyl) -5-ethenylpyrimidine-6-carboxylic acid] showed a pest or weed control at 8 g/ha (CHEAL Chenopodium album [1]) of 80%, a pest or weed control at 8 g/ha (VERPE Veronica persica) of 80% and a pest or weed control at 8 g/ha [2] of 60%. The pest or weed control at 8 g/ha (SINAR Sinapis arvensis [3]) was 0%, the pest or weed control at 8 g/ha [4] was 90% and the pest or weed control at 8 g/ha [5] was 70%. For the same compound, the pest or weed control at 8 g/ha [6] was 90%, the pest or weed control at 8 g/ha (SIDSP Sida spinosa [7]) was 80% and the plant injury at 8 g/ha (GLXMA Soybean [8]) was 0%. For the same compound, the pest or weed control at 8 g/ha (KCHSC Kochia scoparia [9]) was 10%, the pest or weed control at 8 g/ha [10] was 90% and the “Percentage damage CHEAL” value (CHEAL Chenopodium album [11]; 250 g/ha) was 100%. The “Percentage damage AMARE” value ([12]; 250 g/ha) was 100%, the “Percentage damage SINAR” value (SINAR Sinapis arvensis [13]; 250 g/ha) was 70% and the “Percentage damage IPOHE” value (IPOHE Ipomoea hederacea [14]; 250 g/ha) was 100%. For the same compound, the “Percentage damage XANST” value ([15]; 250 g/ha) was 70%, the “Percentage damage POLCO” value ([16]; 250 g/ha) was 20% and the “Percentage damage ABUTH” value ([17]; 250 g/ha) was 100%. The “Percentage damage SIDSP” value (SIDSP Sida spinosa [18]; 250 g/ha) was 100%, the “Percentage damage GLXMA” value (GLXMA Soybean [19]; 250 g/ha) was 0% and the “Percentage damage KCHSC” value (KCHSC Kochia scoparia [20]; 250 g/ha) was 100%. The “Percentage damage EPHHL” value ([21]; 250 g/ha) was 100%.

For `COC(=O)c1nc(-c2ccc(Cl)c(OC)c2F)nc(N)c1Cl` [Ref. Ex. B, 4-Amino-5-chloro-2-(4-chloro-2-fluoro-3-methoxyphenyl)-6-methoxycarbonyl-pyrimidine, reference compound], the pest or weed control at 8 g/ha (CHEAL Chenopodium album [1]) was 80%, the pest or weed control at 8 g/ha (VERPE Veronica persica) was 80% and the pest or weed control at 8 g/ha [2] was 100%. The pest or weed control at 8 g/ha (SINAR Sinapis arvensis [3]) was 80%, the pest or weed control at 8 g/ha (IPOHE Ipomoea hederacea [22]) was 80% and the pest or weed control at 8 g/ha [4] was 100%. The pest or weed control at 8 g/ha [5] was 80%, the pest or weed control at 8 g/ha [6] was 90% and the pest or weed control at 8 g/ha (SIDSP Sida spinosa [7]) was 70%. For the same compound, the plant injury at 8 g/ha (GLXMA Soybean [8]) was 90%, the pest or weed control at 8 g/ha [10] was 100% and the “Percentage damage CHEAL” value (CHEAL Chenopodium album [11]; 15 g/ha) was 30%. For the same compound, the “Percentage damage AMARE” value ([12]; 15 g/ha) was 70%, the “Percentage damage SINAR” value (SINAR Sinapis arvensis [13]; 15 g/ha) was 80% and the “Percentage damage IPOHE” value (IPOHE Ipomoea hederacea [14]; 15 g/ha) was 0%. For the same compound, the “Percentage damage XANST” value ([15]; 15 g/ha) was 0%, the “Percentage damage POLCO” value ([16]; 15 g/ha) was 0% and the “Percentage damage ABUTH” value ([17]; 15 g/ha) was 30%. For the same compound, the “Percentage damage GALAP” value (GALAP Galium aparine) was 70%, the “Percentage damage SIDSP” value (SIDSP Sida spinosa [18]; 15 g/ha) was 40% and the “Percentage damage GLXMA” value (GLXMA Soybean [19]; 15 g/ha) was 90%. The “Percentage damage KCHSC” value (KCHSC Kochia scoparia [20]; 15 g/ha) was 0% and the “Percentage damage EPHHL” value ([21]; 15 g/ha) was 80%.
